Measurements taken from the supplement of paper PMC13380429.

Assays:
Conditions in all cases: 72 h
Vero E6 [1] = assay: relative viability EC50 (midpoint between 100% and the lowest measured viability); higher = less toxic
U2OS [2] = assay: as above
Calu-3 [3] = assay: as above
HepG2 [4] = assay: as above
Caco-2 [5] = assay: as above
Vero E6 [6] = assay: cell viability relative to DMSO; higher = less toxic
U2OS [7] = assay: as above
Calu-3 [8] = assay: as above
HepG2 [9] = assay: as above
Caco-2 [10] = assay: as above
Vero E6 [11] = assay: drug sensitivity score (DSS) for viability; higher = more toxic; extreme values may be limits of the assay
U2OS [12] = assay: as above
Calu-3 [13] = assay: as above
HepG2 [14] = assay: as above
Caco-2 [15] = assay: as above

Structure (SMILES) | relative viability EC50 (Vero E6 [1]) [µM] | relative viability EC50 (U2OS [2]) [µM] | relative viability EC50 (Calu-3 [3]) [µM] | relative viability EC50 (HepG2 [4]) [µM] | relative viability EC50 (Caco-2 [5]) [µM] | cell viability (Vero E6 [6]; 1 nM) [%] | cell viability (Vero E6 [6]; 10 nM) [%] | cell viability (Vero E6 [6]; 100 nM) [%] | cell viability (Vero E6 [6]; 1000 nM) [%] | cell viability (Vero E6 [6]; 10000 nM) [%] | cell viability (U2OS [7]; 1 nM) [%] | cell viability (U2OS [7]; 10 nM) [%] | cell viability (U2OS [7]; 100 nM) [%] | cell viability (U2OS [7]; 1000 nM) [%] | cell viability (U2OS [7]; 10000 nM) [%] | cell viability (Calu-3 [8]; 1 nM) [%] | cell viability (Calu-3 [8]; 10 nM) [%] | cell viability (Calu-3 [8]; 100 nM) [%] | cell viability (Calu-3 [8]; 1000 nM) [%] | cell viability (Calu-3 [8]; 10000 nM) [%] | cell viability (HepG2 [9]; 1 nM) [%] | cell viability (HepG2 [9]; 10 nM) [%] | cell viability (HepG2 [9]; 100 nM) [%] | cell viability (HepG2 [9]; 1000 nM) [%] | cell viability (HepG2 [9]; 10000 nM) [%] | cell viability (Caco-2 [10]; 1 nM) [%] | cell viability (Caco-2 [10]; 10 nM) [%] | cell viability (Caco-2 [10]; 100 nM) [%] | cell viability (Caco-2 [10]; 1000 nM) [%] | cell viability (Caco-2 [10]; 10000 nM) [%] | drug sensitivity score (Vero E6 [11]) | drug sensitivity score (U2OS [12]) | drug sensitivity score (Calu-3 [13]) | drug sensitivity score (HepG2 [14]) | drug sensitivity score (Caco-2 [15])
COc1cc2c(Nc3ccc(Cl)c(Cl)c3F)ncnc2cc1OC[C@@H]1C[C@@H]2CN(C)C[C@@H]2C1 [XL647] | 0.612 | 1.94 | 0.431 | 2.55 | 1.39 | 96.8 | 100 | 85.1 | 39.2 | -0.4 | 95.9 | 95.9 | 93.7 | 84.2 | -0.3 | 98.8 | 93.2 | 82.4 | 31 | 0.7 | 102 | 89.7 | 99.7 | 92.9 | 6.7 | 92.1 | 92.6 | 95 | 72.1 | 14.9 | 13.6 | 8.2 | 15.3 | 6.3 | 8.4
Cc1ccc(Oc2ccccc2-c2csc(N=C3NCCCN3)n2)c(C)c1 [abafungin] | > 10 | > 10 | > 10 | > 10 | > 10 | 106 | 99.8 | 105 | 99.4 | 97.7 | 91.6 | 95.2 | 93.6 | 96.7 | 91.2 | 90.4 | 99 | 104 | 99.3 | 112 | 105 | 104 | 104 | 87.8 | 75.8 | 104 | 105 | 100 | 87.5 | 78.3 | 0 | 0 | 0 | 2.3 | 2
CC(=O)Nc1c(I)cc(I)c(C(=O)O)c1I [acetriazoic-acid] | > 10 | > 10 | > 10 | > 10 | > 10 | 93.2 | 99 | 93.8 | 98.4 | 102 | 94.2 | 92.4 | 98.7 | 97.2 | 98.2 | 98.6 | 95.3 | 95.1 | 99.4 | 97.1 | 96.6 | 92.1 | 89.9 | 95.8 | 107 | 91.2 | 92 | 96.3 | 97.8 | 102 | 0 | 0 | 0 | 0 | 0
COc1ccc(-c2ccc3cc(C(=O)O)ccc3c2)cc1C12CC3CC(CC(C3)C1)C2 [adapalene] | > 10 | > 10 | > 10 | > 10 | > 10 | 98.1 | 94.6 | 95.4 | 93.3 | 115 | 94.5 | 98.2 | 94.6 | 99.4 | 98.4 | 98.6 | 101 | 101 | 101 | 86.2 | 102 | 96.9 | 109 | 104 | 112 | 95.3 | 99.6 | 97.6 | 99.4 | 93.3 | 0 | 0 | 0.1 | 0 | 0
C[C@]12CCC(=O)C=C1CC[C@@H]1[C@@H]2C(=O)C[C@]2(C)C(=O)CC[C@@H]12 [adrenosterone] | > 10 | > 10 | > 10 | > 10 | > 10 | 95.3 | 100 | 99.3 | 97.5 | 97.1 | 103 | 95 | 98.2 | 97.4 | 99.1 | 106 | 92.5 | 100 | 98.1 | 96.4 | 98.6 | 98.8 | 94.5 | 97.7 | 97.5 | 107 | 96 | 98 | 95 | 97.5 | 0 | 0 | 0 | 0 | 0
C=CC[C@]1(O)CC[C@H]2[C@@H]3CCC4=CCCC[C@@H]4[C@H]3CC[C@@]21C [allylestrenol] | > 10 | > 10 | > 10 | > 10 | > 10 | 102 | 91.5 | 106 | 103 | 97.7 | 94.6 | 98.1 | 94.8 | 99.4 | 99.5 | 98 | 108 | 116 | 104 | 106 | 105 | 104 | 108 | 105 | 98.3 | 107 | 102 | 112 | 102 | 88.8 | 0 | 0 | 0 | 0 | 0
